Experimental data: a melting point compilation (Tetko et al.)

Compound	melting point [°C]
O=C(O)C1CC2CCCCC2N1C(=O)c1ccc(F)cc1F (configuration not stated)	189 to 191
O=S1(=O)NN=Cc2ccccc21	141 to 143
C#Cc1nc2ccccc2s1	39 to 41
COCC(C)NC(N)=O (configuration not stated)	73 to 75
CS(=O)(=O)Nc1ccccc1I	96 to 98
O=C(CCl)NC(=O)Nc1ccc2c(c1)OCCCO2	110 to 112
Nc1cnc(C2CC2)nc1	169 to 171
O=[N+]([O-])c1ccc(Br)c2ccncc12	134 to 136
Cc1ccc(C)n1-c1sccc1C(=O)O	168 to 170
COC(=O)C1Cc2ccccc2CN1C(=O)CCl (configuration not stated)	85 to 87
Cc1ccc(-c2nn(-c3ccc(F)cc3)cc2C(=O)O)cc1	212 to 214
O=C(CCl)NC1CCCCNC1=O (configuration not stated)	196 to 198
Nc1ccc(S(=O)(=O)Nc2ccc(Cl)cc2Cl)cc1	162 to 164
O=[N+]([O-])c1cccc(-c2cnc(CCCl)o2)c1	73 to 75
Nc1ccc(OCc2cccnc2)cc1	79 to 81
O=C(CCl)NCc1ccccc1CS(=O)(=O)N1CCOCC1	118 to 120
FC(F)Sc1ccc(Nc2nnc(S)s2)cc1	188 to 190
CC(C)C(Oc1ccc(F)cc1F)C(=O)O (configuration not stated)	67 to 69
O=C(O)Cc1cn2ccsc2n1	180 to 184
O=C1CC(C(=O)O)c2ccccc2N1 (configuration not stated)	211 to 213
CCc1cccc(OCC(=O)O)c1	66 to 70
COc1ccc(CN2CCCC2)cc1N	46 to 48
CC(NC(=O)c1ccc(S(=O)(=O)N(C)C)cc1)C(=O)O (configuration not stated)	180 to 182
O=C(O)Cc1ccc(-n2cnnn2)cc1	171 to 173

Compound	melting point [°C]
COc1ccc(-c2cc(C(=O)O)c3sc(N4CCCCC4)nc3n2)cc1OC	284 to 286
O=C(NC(Cc1c[nH]c2ccccc12)C(=O)O)c1ccc(F)cc1 (configuration not stated)	95 to 98
O=C(O)c1cc(-c2ccc(Cl)cc2)nn1-c1ccccc1	214 to 216
Cc1ccc(C(=O)O)cc1N1C(=O)C2CC=CCC2C1=O (configuration not stated)	221 to 223
N#Cc1cc2c(nc1N)CCC2	205 to 207
O=C(O)c1nnn(-c2ccccc2F)c1C(F)(F)F	133 to 135
Cc1ccc(C(=O)Cc2ccccn2)cc1	73 to 75
Oc1ccc(C2SCCCS2)cc1	154 to 156
O=[N+]([O-])c1c(Cl)ccc2ncccc12	119 to 121
COc1cc(C(C)=O)ccc1S(=O)(=O)C(F)F	134 to 136
CSCc1nnc(S)o1	71 to 73
NCc1ccc(-c2ccc3c(c2)CCO3)cc1	77 to 79
CC(C)(C)OC(=O)NC(C(N)=NO)c1ccccc1OC(F)(F)F (configuration not stated)	119 to 121
Nc1ccc(NC(=O)c2ccccc2I)cc1	143 to 145
Cc1cc(NC(=O)c2ccc(F)cc2Cl)sc1C(=O)O	207 to 209
N#CCc1c[nH]c2ccc(Cl)cc12	104 to 106
CCN(CC)S(=O)(=O)c1cc(C(=O)O)ccc1F	159 to 161
CC(C)(C)c1ccc(C(=O)N=C=S)cc1	33 to 35
O=C(O)COc1ccc(Cl)cc1Br	123 to 125
O=C1CCCOc2cc(F)ccc21	37 to 39
O=C(O)C1CNc2ccccc21 (configuration not stated)	178 to 180
Cc1nn(C)c2ncc(S(=O)(=O)Cl)cc12	134 to 136
CC1=C(C#N)CCC(=O)N1	201 to 203
O=C(NCCO)c1ccc(Cl)nn1	119 to 121

Compound	melting point [°C]
Nc1cc(-c2cccc(Cl)c2Cl)[nH]n1	110 to 112
O=C1CCOc2cc(Br)ccc21	89 to 91
Cn1c(Cl)c(C=O)c2ccccc21	92 to 94
COc1ccc2c(c1)OCC(C=O)=C2	82 to 84
O=C(Cn1cnnn1)Nc1ccccc1C(=O)O	194 to 196
Cc1cc(N)ccc1C(=O)N(C)C	162 to 164
Cn1cnnc1Sc1ccccc1N	137 to 139
CCn1ncc(C#N)c1N	159 to 161
O=C1CCOc2c(Cl)cccc21	62 to 64
O=Cc1c(Cl)nc(Cl)n1-c1ccccc1	133 to 135
CN(C)C(C)(C(=O)O)c1ccc(Cl)cc1 (configuration not stated)	239 to 241
CCCC(=O)N1CCCC1C(=O)O (configuration not stated)	115 to 117
COc1ccc(C(=O)C(C)Br)cc1 (configuration not stated)	66 to 68
CC1(C)CCCCC1=CC(=O)O	89 to 91
NC(=S)c1ccc(NC(=O)C2CC2)cc1	179 to 181
O=Cc1cc2ccccc2nc1O	308 to 310
Cc1c(Cl)ccc2ccc(=O)[nH]c12	269 to 271
CCN(CC)S(=O)(=O)c1cc(C(=O)O)ccc1Cl	118 to 120
O=C(O)c1nn(-c2c(Cl)cc(Cl)cc2Cl)cc1O	194 to 196
OC1CCN(c2nncc3ccccc23)CC1	135 to 137
Cc1oncc1C(=O)Nc1ccc(N)c(C(F)(F)F)c1	196 to 198
COC(=O)C(Br)CN1C(=O)c2ccccc2C1=O (configuration not stated)	99 to 101
Nc1cccc([N+](=O)[O-])c1C(=O)O	143 to 145
CC(C)N1C2CCC1CC(C(=O)O)C2 (configuration not stated)	223 to 225

Compound	melting point [°C]
NCCCN1CCN(c2ncccn2)CC1	72 to 74
Nc1ccc(Oc2ccc(S(N)(=O)=O)cc2)cc1	196 to 198
COc1ccc(OC)c(-c2cc(C(=O)O)no2)c1	192 to 194
Cc1cc(C)n(N)c(=O)c1C#N	164 to 166
OCc1nnnn1-c1ccccc1	100 to 102
NNS(=O)(=O)c1ccccc1[N+](=O)[O-]	89 to 91
Cc1cc(C)c(CBr)c(C)c1	49 to 51
CCN(CC)S(=O)(=O)c1cc(N)ccc1C	166 to 169
O=C(CN1CCCC1)Nc1c(I)cc(I)cc1I	184 to 186
O=C(CCl)N1N=C(c2cc3ccccc3o2)CC1c1ccco1 (configuration not stated)	165 to 167
Cc1nnc(Br)s1	106 to 108
Nc1cc2c(cc1Sc1ccccc1)OCCO2	74 to 76
CN(C)S(=O)(=O)c1cccc(-c2nnc(S)n2N)c1	200 to 202
CC(C)CC(C(=O)O)N1C(=O)C2CC=CCC2C1=O (configuration not stated)	135 to 137
Nc1ccc2[nH]c(=O)c(=O)[nH]c2c1	352 to 354
Brc1cccc(-c2ncc[nH]2)c1	129 to 131
Cc1ccc(-n2ccnc2)c(C(=O)O)c1	259 to 261
CC(C)(C)OC(=O)NCCc1nc(N)no1	116 to 118
COc1cc(NC(=O)CCCl)cc(OC)c1OC	117 to 119
O=C(O)c1ccc(S(=O)(=O)N2CCc3ccccc3C2)cc1	272 to 274
c1ccc(-c2nnco2)cc1	35 to 37
Cc1ccc2ccccc2c1S(=O)(=O)Cl	76 to 78
COc1ccc([N+](=O)[O-])cc1CCl	78 to 80
Sc1nnc(CN2CCCC2)n1-c1ccc(Cl)cc1	260 to 262

Compound	melting point [°C]
CCNC(=O)Cc1ccc(N)cc1	117 to 119
NC(=O)c1ccc(OCCC(=O)O)cc1	214 to 216
Nc1cccc(OCC(=O)Nc2ccccc2)c1	120 to 122
CS(=O)(=O)Cc1ccc(Cl)c(N)c1	137 to 139
Cc1ccc(NC2CCCCC2)nc1	89 to 91
Cc1nn(C2CCOC2)cc1C(=O)O (configuration not stated)	163 to 165
CCCCCCOc1ccc(C(=O)O)cc1OC	122 to 124
O=[N+]([O-])c1cc(S(=O)(=O)C(F)F)ccc1Cl	71 to 73
Cc1n[nH]c(C)c1NC(=O)CCl	160 to 162
Nc1ccc(NC(=O)C2CC2)cc1C(F)(F)F	145 to 147
Nc1nnc(-c2cccc3ccccc23)o1	184 to 186
COc1ccc(Cn2cnc(N)n2)cc1	129 to 131
CCS(=O)(=O)N1CCc2cc(C(=O)CCl)ccc21	231 to 233
N#Cc1ccc(S(=O)(=O)N2CCC(C(=O)O)CC2)cc1	175 to 177
CCCCc1ccc(NS(=O)(=O)c2ccc(C)c(C(=O)O)c2)cc1	192 to 194
O=C(CCl)Nc1nc(-c2ccccc2Cl)c(-c2ccccc2Cl)s1	135 to 137
CC(=O)CC(=O)Nc1ccc(F)cc1	101 to 103
O=C(O)C1(c2cccc(Cl)c2)CCC1	101 to 103
Cc1cccc(NC(=O)CCl)c1	128 to 130
COc1ccc(CC(=O)NO)cc1	159 to 161
O=C(O)CCCCc1ccc(Cl)cc1	64 to 66
Nc1nc(=O)cn[nH]1	249 to 251
NC1CCN(c2ccc(F)c(Cl)c2)C1=O (configuration not stated)	110 to 112
NC(=S)c1ncc(N)s1	191 to 193

Compound	melting point [°C]
Nc1nnc2n1CCCC2	270 to 272
Cn1ncc2c(N)ncnc21	264 to 266
N#Cc1ccc(I)cc1C#N	140 to 142
CN1C(=O)c2ccc(NC(=O)CCl)cc2C1=O	203 to 205
O=C(O)C1CSCN1C(=O)c1ccc(Cl)cc1 (configuration not stated)	60 to 62
CC(C)CCNS(=O)(=O)c1ccc(Cl)nc1	91 to 93
CC(C)C(Br)C(=O)N1CCc2sccc2C1 (configuration not stated)	84 to 86
CC(Sc1ccc(C#N)cc1)C(=O)O (configuration not stated)	114 to 116
COc1cccc(-c2nc(CC(=O)O)cs2)c1OC	156 to 158
O=C(O)c1cc(-c2cccc(Br)c2)nc2ccccc12	215 to 217
O=C(O)CCc1nc2ccccc2o1	110 to 112
O=c1c2ccccc2ncn1CCBr	105 to 107
Cc1nc(CC(=O)NN)cs1	114 to 116
O=C(O)c1ccc2c(c1)-c1ccccc1C2	264 to 266
O=c1[nH]c2ccccc2c(=O)n1CCO	257 to 259
NC(=NO)c1ccc(O)cc1Cl	153 to 155
COCc1cccc(C(=O)O)c1	64 to 66
O=C(O)c1ccc(S(=O)(=O)Cl)c(Br)c1	206 to 208
Cc1nc2ccccc2n1N	145 to 147
NNC(=O)c1ccc(S(=O)(=O)N2CCN(Cc3ccccc3)CC2)cc1	135 to 137
O=C1NC(=O)c2ncccc21	241 to 243
CN(C)C(=O)N1CCC(C(=O)O)CC1	146 to 148
